Where two headings read alike, the source gives them in different places.
Legend:
human MRP2 = target: T1, human MRP2 (Homo sapiens, UniProt Q92887); assay: MRP2 membrane vesicles transport assay with scutellarin as probe (Example 13); format: biochemical
T1 construct: purchased BD Biosciences; host or cells: insect Sf9 cells
Protocol: With some changes in BD protocol of MRP2 vesicles assay, a rapid filtration technique of multiscreen HTS vacuum manifold (Millipore) was used in the analysis. […] The mixture was incubated in the buffer (250 mM sucrose, 10 mM MgCl2, 10 mM Tris/HCl, pH 7.4) at 37° C. for […], followed by addition of 15 μl of 25 mM MgATP or blank buffer to each well started the test. The mixture was incubated for 4 min and stopped by transferring the membrane vesicles to a filter plate.

Caco-2 monolayers [1] = format: in vitro ADME, human
Protocol: Caco-2 cells were seeded on 24-well Millicell insert filters with a density of about 1×10^5 cells/well. These cells were cultured for 21 days to reach confluence and differentiation. The integrity of Caco-2 cell monolayers was evaluated by monitoring trans-epithelial electrical resistance (TEER) on an epithelial volt ohmmeter (World Precision Instruments, Sarasota, Fla., USA). The impermeability (gate functions) of epithelial cell monolayers was measured by the fluorescein leakage test (FLT) that provided information on the effects of xenobiotics on the impermeability of epithelial cell monolayers. The differentiation was assessed using the alkaline phosphatase (ALP) assay at 562 nm
After the above measured parameters of the Caco-2 model became stable, transport study was performed from the apical (AP) to the basolateral (BL) side and from BL to AP at 37° C. Following 30 min of equilibration after the addition of 400 μl HBSS (pH 7.4) in AP side and 600 μl in BL side in an atmosphere of 5% CO2, the test solutions containing 100 μM scutellarin or each of 100 μg/ml of five surfactants Cremophor® EL, Cremophor® RH, Labrasol®, Pluronic® F68, and Pluronic® F127; each of 100 μg/ml of three oils Labrafac Lipophile® WL1349, Maisine® 35-1, and Capmul® MCM; each of 100 μg/ml of three co-surfactants Transcutol®, PEG 400, and PEG 2000; and each of 100 μg/ml of four solid carriers β-cyclodextrin, lactose, HPMC K4M®, HPMC K100®. The solutions were all dissolved in DMSO and HBSS and then added to the donor side. The sample of 100 μM scutellarin was used as the scutellarin standard group in comparing the excipients efflux effect. Permeability of scutellarin was measured at 37° C. from the AP to BL direction and BL to AP direction after incubating in 5% CO2 for respectively 30 min, 60 min, and 90 min. […] After 90 min of incubation, solutions from both AP and BL sides were collected. Then the separately collected samples from each well of AP and BL sides were diluted with equal amounts of methanol before they were injected into the LC-MS for quantification of scutellarin. At 30, 60, 90 min of incubation, TEER values were respectively detected before the samples were drawn from the tested wells.
In the Caco-2 permeation analysis, if the calculated efflux ratio of one excipient group was lower than scutellarin standard group, this excipient might possibly be indicated to have the inhibition effect on MRP2.

Caco-2 monolayers [2] = format: in vitro ADME; settings: human
[3] = human, Caco-2, 90 min, 100 μg/ml, pH 7.4

T1 sequence (Q92887 whole entry): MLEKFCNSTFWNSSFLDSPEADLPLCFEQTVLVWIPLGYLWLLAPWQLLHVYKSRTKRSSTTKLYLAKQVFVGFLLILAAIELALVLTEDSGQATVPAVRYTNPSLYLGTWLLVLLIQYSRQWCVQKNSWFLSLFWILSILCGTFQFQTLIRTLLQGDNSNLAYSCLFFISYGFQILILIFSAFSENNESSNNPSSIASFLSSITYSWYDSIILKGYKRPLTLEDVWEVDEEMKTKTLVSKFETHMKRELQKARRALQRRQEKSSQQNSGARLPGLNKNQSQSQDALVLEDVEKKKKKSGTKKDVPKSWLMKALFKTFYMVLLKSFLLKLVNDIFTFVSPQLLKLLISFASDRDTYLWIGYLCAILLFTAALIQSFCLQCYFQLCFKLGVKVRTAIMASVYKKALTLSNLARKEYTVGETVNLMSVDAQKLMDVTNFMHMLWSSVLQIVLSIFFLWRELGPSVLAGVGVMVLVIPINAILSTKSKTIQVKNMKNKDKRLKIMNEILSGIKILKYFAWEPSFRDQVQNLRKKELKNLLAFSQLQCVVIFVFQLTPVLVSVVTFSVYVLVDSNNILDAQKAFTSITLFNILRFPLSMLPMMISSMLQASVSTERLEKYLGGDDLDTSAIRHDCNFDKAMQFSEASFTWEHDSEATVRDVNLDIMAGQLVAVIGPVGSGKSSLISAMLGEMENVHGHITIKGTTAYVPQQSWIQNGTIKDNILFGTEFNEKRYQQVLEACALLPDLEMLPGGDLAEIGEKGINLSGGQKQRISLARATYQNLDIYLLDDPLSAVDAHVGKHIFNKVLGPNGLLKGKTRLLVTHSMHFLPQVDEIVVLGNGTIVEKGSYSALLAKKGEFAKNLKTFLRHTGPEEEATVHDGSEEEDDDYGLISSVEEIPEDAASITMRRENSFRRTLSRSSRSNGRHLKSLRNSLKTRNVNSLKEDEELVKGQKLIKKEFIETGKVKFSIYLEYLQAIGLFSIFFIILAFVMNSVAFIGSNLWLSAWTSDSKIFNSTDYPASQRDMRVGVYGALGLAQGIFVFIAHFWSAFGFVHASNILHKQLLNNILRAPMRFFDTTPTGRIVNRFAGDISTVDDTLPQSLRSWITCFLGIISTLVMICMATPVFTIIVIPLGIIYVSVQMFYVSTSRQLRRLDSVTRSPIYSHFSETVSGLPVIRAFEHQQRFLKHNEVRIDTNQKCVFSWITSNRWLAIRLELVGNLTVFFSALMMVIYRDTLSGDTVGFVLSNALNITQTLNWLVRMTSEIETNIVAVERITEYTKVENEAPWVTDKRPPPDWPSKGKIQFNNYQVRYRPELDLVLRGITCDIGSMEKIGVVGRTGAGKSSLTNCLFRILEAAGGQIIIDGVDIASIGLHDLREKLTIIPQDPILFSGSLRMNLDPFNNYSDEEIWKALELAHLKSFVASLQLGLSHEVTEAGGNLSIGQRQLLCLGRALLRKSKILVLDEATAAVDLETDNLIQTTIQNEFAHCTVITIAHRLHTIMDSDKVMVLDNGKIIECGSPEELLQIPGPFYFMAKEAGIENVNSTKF

Row | Compound | PappAB (Caco-2 monolayers [1]; Caco-2) | PappBA (Caco-2 monolayers [1]; Caco-2) | further results
1 | CCOCCOCCO [Transcutol ®, diethylene glycol monoethylether] | – | – | sequence of inhibition effects on MRP2 (human MRP2; within excipient group, p<0.05): PEG 2000>PEG 400>Transcutol®; PappAB (Caco-2 monolayers [1]; [3]): 2.69 ± 0.35 10^−6 cm · s^−1; PappBA (Caco-2 monolayers [1]; [3]): 5.99 ± 0.52 10^−6 cm · s^−1
2 | polyethylene glycol [PEG 2000] | 9.91 ± 0.35 10^−6 cm · s^−1 | 12.91 ± 1.60 10^−6 cm · s^−1 | –
3 | Pluronic ® F68 | 2.03 ± 0.35 10^−6 cm · s^−1 | 4.38 ± 0.13 10^−6 cm · s^−1 | Efflux reduction sequence (Caco-2 monolayers [1]; Caco-2): Cremophor® RH>Pluronic® F68>Labrasol®>Pluronic® F127
4 | OC[C@H]1O[C@@H]2O[C@H]3[C@H](O)[C@@H](O)[C@@H](O[C@H]4[C@H](O)[C@@H](O)[C@@H](O[C@H]5[C@H](O)[C@@H](O)[C@@H](O[C@H]6[C@H](O)[C@@H](O)[C@@H](O[C@H]7[C@H](O)[C@@H](O)[C@@H](O[C@H]8[C@H](O)[C@@H](O)[C@@H](O[C@H]1[C@H](O)[C@H]2O)O[C@@H]8CO)O[C@@H]7CO)O[C@@H]6CO)O[C@@H]5CO)O[C@@H]4CO)O[C@@H]3CO [β-cyclodextrin] | 4.04 ± 0.33 10^−6 cm · s^−1 | 9.33 ± 0.36 10^−6 cm · s^−1 | scutellarin concentrations measured compared with scutellarin standard group (FIG. 2) (human MRP2; higher than standard means MRP2 inhibition): lower quantities of scutellarin than that of the standard group
5 | polyethylene glycol [PEG 400] | 1.46 ± 0.08 10^−6 cm · s^−1 | 1.96 ± 0.05 10^−6 cm · s^−1 | –
6 | OC[C@H]1O[C@@H](O[C@H]2[C@H](O)[C@@H](O)C(O)O[C@@H]2CO)[C@H](O)[C@@H](O)[C@H]1O (stereo partly shown) [lactose] | – | – | PappAB (Caco-2 monolayers [1]; [3]): 1.44 ± 0.24 10^−6 cm · s^−1; PappBA (Caco-2 monolayers [1]; [3]): 7.90 ± 0.43 10^−6 cm · s^−1
7 | Pluronic ® F127 | 1.84 ± 0.09 10^−6 cm · s^−1 | 5.31 ± 0.49 10^−6 cm · s^−1 | Efflux reduction sequence (Caco-2 monolayers [1]; Caco-2): Cremophor® RH>Pluronic® F68>Labrasol®>Pluronic® F127
8 | O=C(O)[C@H]1O[C@@H](Oc2cc3oc(-c4ccc(O)cc4)cc(=O)c3c(O)c2O)[C@H](O)[C@@H](O)[C@@H]1O [Scutellarin, 4,5,6-trihydroxyflavone-7-glucuronide] | – | – | identification as MRP2 substrate with MRP2 inhibitor MK571 (Caco-2 monolayers [2]): identified as the substrate for MRP2

Reference: patent publication US20140057860A1, “PHARMACEUTICAL COMPOSITION FOR TREATING CARDIOVASCULAR AND CEREBROVASCULAR DISEASES AND METHOD OF MANUFACTURING THE SAME” (Macau University of Science and Technology, priority 2012, published 2014)
